Assays:
[1] = Solubilization of particles from oxidative PS20 degradation (HIAC); type: physicochemical; settings: 5% and 15% (w/v) HP-β-CD; 0.02% (w/v) PS20 stored 27 months at 5° C.
Procedure: Subvisible particles were measured using a HIAC 9703 particle counter equipped with an HRDL-150 detector and a 1 mL syringe. Performance of the instrument was verified with NIST-traceable 2 μm Polystyrene bead standards at 3000 counts/mL before each measurement session. The HIAC instrument was configured to a 10 mL/min flow rate, 0.1 mL tare volume, and 0.4 mL sample volume. The samples were analyzed using 4 runs of 0.4 mL sips, with the first run of each sample was discarded to prevent measurement error due to sample carryover. Results were reported as the average values for 1.4, 2, 5, 10, 15, and 25, 50 μm analysis filter sizes.
Different concentrations of HP-β-CD were tested for their ability to solubilize particles produced as a result of oxidative PS20 degradation. Solutions of concentrated HP-β-CD were prepared in triplicate in pH 5.5 buffer. Protein-free samples containing 0.02% (w/v) PS20 were stored for 27 months at 5° C., resulting in oxidative PS20 degradation and the formation of visible and subvisible particles related to PS20 degradation products. Each degraded PS20 solution was divided into 3 aliquots and concentrated excipient was spiked into each the aliquots. […] The following day, subvisible particle counts were measured using a HIAC 9703 particle counter.

PPL enzyme = biological target: T1, PPL enzyme (Sus scrofa, UniProt P00591); test: PPL degradation of PS20 in mAb, BsAb and sFAb samples, PS20 by RP-ELSD; type: biochemical, porcine; settings: 5% and 15% HPβCD, BsAb, sFAb 20 mg/mL and control, 0.02% PS20, 20 mM histidine acetate pH 5.5, 15 μg/mL PPL 4.5 hours
T1 construct: purchased Sigma Aldrich Inc. (St. Louis, Mo.)
T1 sequence (P00591 1-450): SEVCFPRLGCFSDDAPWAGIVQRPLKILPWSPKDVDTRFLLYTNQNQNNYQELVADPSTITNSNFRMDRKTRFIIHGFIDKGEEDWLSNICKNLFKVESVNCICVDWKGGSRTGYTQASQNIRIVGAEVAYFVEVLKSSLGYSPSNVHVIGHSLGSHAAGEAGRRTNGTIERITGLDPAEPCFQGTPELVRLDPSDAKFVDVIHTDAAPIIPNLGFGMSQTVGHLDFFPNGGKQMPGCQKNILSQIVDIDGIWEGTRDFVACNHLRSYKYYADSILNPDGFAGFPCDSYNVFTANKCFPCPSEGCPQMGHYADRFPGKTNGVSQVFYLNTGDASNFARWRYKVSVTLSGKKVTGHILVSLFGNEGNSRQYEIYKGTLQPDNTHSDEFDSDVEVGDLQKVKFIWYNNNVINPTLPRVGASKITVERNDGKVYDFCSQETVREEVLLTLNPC
Procedure: (§1) Polysorbate concentration was determined using reverse phase ultra-performance liquid chromatography using evaporative light scattering detection (RP-ELSD). Samples were analyzed using an Agilent 1100 series high performance liquid chromatography system (HPLC) fitted with a Waters Oasis MAX cartridge column (20×2.1 mm, 30 μm particle size). The HPLC system was set up with a switching valve directing column flow-through to either waste or a Varian 380-LC evaporative light scattering detector set to 100° C. The mobile phases consisted of 2% formic acid in water (Pump A) and 2% formic acid in isopropanol (Pump B). […] In order to quantitate the PS20 concentration, a standard curve was generated by injecting 20 μL of solutions containing between 0% w/v and 0.4% w/v PS20. For excipients which affected the migration time of PS20 through the column, PS20 standard curve solutions containing the relevant excipient were included in the analysis to facilitate accurate quantitation.
The impact of various protein molecule classes (e.g., monoclonal antibody (mAb), single-Fab antibody (sFAb), and bispecific antibody(BsAb)) was assessed on the ability of cyclodextrins to decrease enzymatic PS20 degradation. […] Each sample was analyzed for PS20 concentration using high performance liquid chromatography with an inline evaporative light scattering detector. […]

Lipoprotein Lipase (LPL) = test: Enzymatic degradation of PS20 by LPL, PS20 by RP-ELSD; type: biochemical, Burkholderia sp.; settings: 15% w/v HP-β-CD; 0.02% PS20, pH 5.5; 70 μg/mL LPL, 5 hours, room temperature
Procedure: as §1
The effect of 15% HP-β-CD on the enzymatic degradation of PS20 was measured. […]
PPL digestion was stopped by heat inactivation in an 85° C. water bath for 30 minutes. LPL and RLE digestion could not be stopped by heat inactivation, so the samples were analyzed immediately for PS20 content. […]

## 2-hydroxypropyl-β-cyclodextrin [HP-β-CD]
[1]
  SVP relative to control sample (0% HP-β-CD): significant reduction in SVP
PPL enzyme
  mitigation of catalytic PS20 degradation across molecular formats (in words): equally effective at mitigating catalytic PS20 degradation
Lipoprotein Lipase (LPL)
  Polysorbate 20 (Relative %): 77.5%
